The first assay addresses human PAD4 (Homo sapiens (Human), UniProt Q9UM07). Put plainly: In Vitro PAD4 BAEE Biochemical Assay. The conditions noted are these: human PAD4, BAEE substrate; 5 nM PAD4, 2 mM calcium chloride, 3 mM BAEE; geometric mean of multiple experiments. The method in brief: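 Recombinant human PAD4 (His-SUMO tag removed, E. coli-expressed), 5 nM, preincubated with compound and 2 mM CaCl2 30 min at 25 °C in MOPS pH 7.6 with DTT; 3 mM BAEE added for 2 h at 25 °C, EDTA stop. Released ammonia detected by o-phthalaldehyde/DTT fluorescence (ex 405, em 535 nm).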
Sequence of human PAD4 (Q9UM07 2-663): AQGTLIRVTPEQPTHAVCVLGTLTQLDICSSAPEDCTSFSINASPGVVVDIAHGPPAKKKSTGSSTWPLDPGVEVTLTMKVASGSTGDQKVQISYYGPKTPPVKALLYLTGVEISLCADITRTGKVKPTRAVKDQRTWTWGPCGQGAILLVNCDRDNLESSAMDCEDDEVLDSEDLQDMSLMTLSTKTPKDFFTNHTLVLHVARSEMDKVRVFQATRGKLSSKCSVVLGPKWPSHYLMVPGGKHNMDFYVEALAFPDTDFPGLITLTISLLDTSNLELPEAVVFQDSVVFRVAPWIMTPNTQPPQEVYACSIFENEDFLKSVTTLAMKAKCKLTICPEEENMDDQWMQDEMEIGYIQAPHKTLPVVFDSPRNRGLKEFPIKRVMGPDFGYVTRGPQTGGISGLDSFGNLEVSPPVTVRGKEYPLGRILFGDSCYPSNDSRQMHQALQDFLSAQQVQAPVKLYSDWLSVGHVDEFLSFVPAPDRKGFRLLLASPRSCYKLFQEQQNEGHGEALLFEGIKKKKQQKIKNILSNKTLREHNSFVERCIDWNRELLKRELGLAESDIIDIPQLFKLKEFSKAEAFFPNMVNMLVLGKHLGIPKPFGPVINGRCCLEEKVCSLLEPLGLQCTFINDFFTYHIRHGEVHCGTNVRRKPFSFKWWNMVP
With `COC(=O)N(c1ccc2cc(-c3nc4cc(C(=O)N5CCC[C@@H](N)C5)cc(OC)c4n3C)n(CC3CC3)c2n1)C1CCC1` [Example 110, (R)-methyl (2-(5-(3-aminopiperidine-1-carbonyl)-7-methoxy-1-methyl-1H-benzo[d]imidazol-2-yl)-1-(cyclopropylmethyl)-1H-pyrrolo[2,3-b]pyridin-6-yl) (cyclobutyl)carbamate], the IC50 was determined as 509 nM.

As for `CCN(c1ccc2cc(-c3nc4cc(C(=O)N5CCC[C@@H](N)C5)cc(OC)c4n3C)n(CC3CC3)c2n1)S(C)(=O)=O` [Example 5, (R)-N-(2-(5-(3-aminopiperidine-1-carbonyl)-7-methoxy-1-methyl-1H-benzo[d]imidazol-2-yl)-1-(cyclopropylmethyl)-1H-pyrrolo [2,3-b]pyridin-6-yl)-N-ethylmethanesulfonamide], the IC50 was determined as 78.6 nM. Consider `COc1cc(C(=O)N2[C@H]3CC[C@@H]2[C@H](N)C3)cc2nc(-c3cc4ccc([C@@H](C)N5CCCC5=O)nc4n3CC3CC3)n(C3CC3)c12` [Example 245], for which the IC50 worked out at 31.7 nM.

Take `COc1cc(C(=O)N2[C@H]3CC[C@@H]2[C@H](N)C3)cc2nc(-c3cc4ccc([C@@H](C)NC(=O)C(C)(C)C)nc4n3CC3CC3)n(C3CC3)c12` [Example 127, N-((R)-1-(2-(5-((1R,2R,4S)-2-amino-7-azabicyclo[2.2.1]heptane-7-carbonyl)-1-cyclopropyl-7-methoxy-1H-benzo[d]imidazol-2-yl)-1-(cyclopropylmethyl)-1H-pyrrolo[2,3-b]pyridin-6-yl)ethyl)pivalamide]: the IC50 is 63.7 nM. For the compound `COc1cc(C(=O)N2C[C@H](N)[C@@H]3CC[C@H]2C3)cc2nc(-c3cc4ccc([C@@H](C)NC(=O)C56CC(Cl)(C5)C6)nc4n3CC3CC3)n(C)c12` [Example 229, N-((R)-1-(2-(5-((1S,4R,5R)-4-amino-2-azabicyclo[3.2.1]octane-2-carbonyl)-7-methoxy-1-methyl-1H-benzo[d]imidazol-2-yl)-1-(cyclopropylmethyl)-1H-pyrrolo[2,3-b]pyridin-6-yl)ethyl)-3-chlorobicyclo[1.1.1]pentane-1-carboxamide], the IC50 was 83.3 nM. With `COc1cc(C(=O)N2C[C@H](N)CCN2C)cc2nc(-c3cc4ccc([C@@H](C)NC(=O)c5cnn(C(F)F)c5)nc4n3CC3CC3)n(C)c12` [Example 170, N-((R)-1-(2-(5-((R)-5-amino-2-methylhexahydropyridazine-1-carbonyl)-7-methoxy-1-methyl-1H-benzo[d]imidazol-2-yl)-1-(cyclopropylmethyl)-1H-pyrrolo[2,3-b]pyridin-6-yl)ethyl)-1-(difluoromethyl)-1H-pyrazole-4-carboxamide], the IC50 was 67.1 nM. `COc1cc(C(=O)N2CCC[C@@H](N)[C@H]2C)cc2nc(-c3cc4ccc(N(C)S(C)(=O)=O)nc4n3CC3CC3)n(C)c12` [Example 4, N-(2-(5-((2R,3R)-3-amino-2-methylpiperidine-1-carbonyl)-7-methoxy-1-methyl-1H-benzo[d]imimidazol-2-yl)-1-(cyclopropylmethyl)-1H-pyrrolo [2,3-b]pyridin-6-yl)-N-methylmethanesulfonamide]: the IC50 came out at 149 nM.

`COc1cc(C(=O)N2C[C@H](N)CC[C@@H]2C)cc2nc(-c3cc4ccc(-c5cc6cn[nH]c6cc5C)nc4n3CC3CC3)n(C)c12` [Example 256, ((2S,5R)-5-amino-2-methylpiperidin-1-yl)(2-(1-(cyclopropylmethyl)-6-(6-methyl-1H-indazol-5-yl)-1H-pyrrolo[2,3-b]pyridin-2-yl)-7-methoxy-1-methyl-1H-benzo[d]imidazol-5-yl)methanone]: the IC50 amounted to 1330 nM. For `COc1cc(C(=O)N2[C@H]3CC[C@@H]2[C@H](N)C3)cc2nc(-c3cc4ccc([C@@H](C)NC(=O)c5cnn(C)c5)cc4n3CC3CC3)n(C)c12` [Example 135, N-((R)-1-(2-(5-((1R,2R,4S)-2-amino-7-azabicyclo[2.2.1]heptane-7-carbonyl)-7-methoxy-1-methyl-1H-benzo[d]imidazol-2-yl)-1-(cyclopropylmethyl)-1H-indol-6-yl)ethyl)-1-methyl-1H-pyrazole-4-carboxamide], the IC50 stood at 13 nM. As to `C[C@H]1CCCS(=O)(=O)N1c1ccc2cc(-c3nc4cc(C(=O)N5C[C@H]6CC[C@@H]5[C@@H]6N)ccc4n3C3CC3)n(CC3CC3)c2n1` [Example 100, ((1R,4R,7R)-7-amino-2-azabicyclo[2.2.1]heptan-2-yl) (1-cyclopropyl-2-(1-(cyclopropylmethyl)-6-((S)-3-methyl-1,1-dioxido-1,2-thiazinan-2-yl)-1H-pyrrolo[2,3-b]pyridin-2-yl)-1H-benzo[d]imidazol-5-yl)methanone], the IC50 stood at 55.5 nM.

Still in this assay, the particulars now being: recombinant PAD4 5 nM, 2 mM calcium chloride, 3 mM BAEE substrate; geometric mean of multiple experiments.
On to `COc1cc(C(=O)N2C[C@H](N)[C@@H]3CC[C@H]2C3)cc2nc(-c3cc4ccc([C@@H](C)NC(=O)c5cccc(C(F)F)n5)nc4n3CC3CC3)n(C)c12` [Example 307, N-((R)-1-(2-(5-((1S,4R,5R)-4-amino-2-azabicyclo[3.2.1]octane-2-carbonyl)-7-methoxy-1-methyl-1H-benzo[d]imidazol-2-yl)-1-(cyclopropylmethyl)-1H-pyrrolo[2,3-b]pyridin-6-yl)ethyl)-6-(difluoromethyl) picolinamide], for which the IC50 stood at 382 nM. Regarding `C[C@@H](NC(=O)c1ccc(C(F)F)nc1)c1ccc2cc(-c3nc4cc(C(=O)N5C[C@H](N)[C@@H]6CC[C@H]5C6)cc(F)c4n3C3CC3)n(CC3CC3)c2n1` [Example 310, N-((R)-1-(2-(5-((1S,4R,5R)-4-amino-2-azabicyclo[3.2.1]octane-2-carbonyl)-1-cyclopropyl-7-fluoro-1H-benzo[d]imidazol-2-yl)-1-(cyclopropylmethyl)-1H-pyrrolo[2,3-b]pyridin-6-yl)ethyl)-6-(difluoromethyl)nicotinamide], the IC50 came out at 89.7 nM. Turning to `COc1cc(C(=O)N2C[C@H](N)[C@@H]3CC[C@H]2C3)cc2nc(-c3cc4ccc([C@@H](C)NC(=O)c5ccccc5Cl)nc4n3CC3CC3)n(C)c12` [Example 293, N-((R)-1-(2-(5-((1S,4R,5R)-4-amino-2-azabicyclo [3.2.1]octane-2-carbonyl)-7-methoxy-1-methyl-1H-benzo[d]imidazol-2-yl)-1-(cyclopropylmethyl)-1H-pyrrolo[2,3-b]pyridin-6-yl)ethyl)-2-chlorobenzamide], the IC50 was found to be 80.7 nM.

The values are drawn from US11878965B2, “Inhibitors of peptidylarginine deiminases” (Gilead Sciences, Inc., priority 2020, dated 2024).
